The text below walks through data of BindingDB's records for doi:10.1021/jm00065a012 (University of Toledo, 1993).

The target in assay [1] is High-affinity choline transporter 1 (Rattus norvegicus) (UniProt Q9JMD7). Kind of assay: Inhibition of high affinity choline uptake at concentration of 1 uM.
The nature of assay [2]: Enzyme inhibition dissociation constant for choline acetyl transferase (ChAcT) was determined.
The target in assay [3] is High-affinity choline transporter 1 (Rattus norvegicus) (UniProt Q9JMD7). Kind of assay: Inhibition constant of high-affinity choline uptake.

High-affinity choline transporter 1 (Rattus norvegicus), sequence (Q9JMD7 whole entry, looked up): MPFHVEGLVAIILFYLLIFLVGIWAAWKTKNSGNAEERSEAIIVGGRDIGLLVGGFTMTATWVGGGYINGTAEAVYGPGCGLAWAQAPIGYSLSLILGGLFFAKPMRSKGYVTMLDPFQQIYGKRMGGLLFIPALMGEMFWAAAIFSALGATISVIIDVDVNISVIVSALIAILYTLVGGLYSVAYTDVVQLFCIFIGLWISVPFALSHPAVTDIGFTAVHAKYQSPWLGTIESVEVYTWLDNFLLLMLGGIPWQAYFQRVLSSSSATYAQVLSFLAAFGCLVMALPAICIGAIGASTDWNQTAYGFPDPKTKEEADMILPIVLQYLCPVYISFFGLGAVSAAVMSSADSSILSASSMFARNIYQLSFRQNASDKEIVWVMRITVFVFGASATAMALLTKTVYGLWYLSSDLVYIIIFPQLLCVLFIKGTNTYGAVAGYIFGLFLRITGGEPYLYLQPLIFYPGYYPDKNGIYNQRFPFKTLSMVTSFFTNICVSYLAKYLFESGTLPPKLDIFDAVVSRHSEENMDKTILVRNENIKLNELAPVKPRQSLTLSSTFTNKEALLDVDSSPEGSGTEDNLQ

In assay [1], `C[N+](C)(C)c1cccc(O)c1O` [(2,3-Dihydroxy-phenyl)-trimethyl-ammonium; iodide] had an IC50 of 83 µM. For the same molecule, the Ki in assay [2] is 15000 µM; in assay [3], 60 µM.
In assay [1], `C[N+](C)(C)CC(O)c1ccc(O)c(O)c1` (stereo not given) [[2-(3,4-Dihydroxy-phenyl)-2-hydroxy-ethyl]-trimethyl-ammonium; iodide] yielded an IC50 of 221 µM. In assay [3], the Ki was found to be 130 µM.
